The record followed here is patent publication US20040043918A1, “Apoptosis inducers, caspase cascade activators and anticancer agent” (KIMIGAFUCHI GAKUEN, priority 2000, published 2004).

Holding throughout (assay type): cell-based
In assay [1] the test system is human promyelocytes of leukemia (HL-60). Description: Caspase-1,4 inhibition experiment using a flow cytometer. To be noted: inhibitor preincubated, then DMPC liposome solution, FIG. 5. On the technique in general: Flow cytometry measures light scatter and fluorescence of single cells or particles in a stream.
The test system is the same in assay [2]. Description: Caspase-9 inhibition experiment using a flow cytometer (DNA fragmentation, PI dyeing). The protocol:
The following experiment was performed using the reagents prepared in section 1-1. First of all, multiple samples were prepared in stages wherein 0 to 120 μl of caspase-9 inhibitor was added to 12 ml of a suspension ([…]) of human promyelocytes of leukemia (HL-60, purchased from Riken Cell Bank). Then, the mixture were incubated for 90 minutes, 2 ml of liposome solution comprising dimyristoyl phosphatidylcholine was each added to the samples. Subsequently, each of the samples were incubated for three hours. After washing each sample with 2 ml of −PBS, 5 ml of 70% ethanol was added to each sample, and each sample was left at freezing temperature for one hour so as to be subjected to tissue-fixing. Furthermore, following washing each sample with 2 ml of −PSB, 6 ml of RNase solution was added to each sample, and subsequently, each sample was incubated for 30 minutes. Next, following adding 670 μl of PI solution, each sample was shielded from light with aluminum foil, and was left in a dark place at freezing temperature for 30 minutes, and was subjected to PI dyeing. After PI dyeing, each sample was subjected to centrifugal separation at 2000 rpm for five minutes. After removal of supernatant, and the precipitation formed was suspended in 500 μl of −PBS so as to measure DNA content using a flow cytometer (product name, COULTER EPICS-XL). Inhibition effects were evaluated by the ratios of the DNA fragmentation percentage of the control (wherein no caspase-9 inhibitor was added, and only a liposome solution comprising dimyristoyl phosphatidylcholine was added) to the DNA fragmentation percentages of the samples wherein caspase-9 inhibitor was added in stages.

Assay [3] shares this test system. In words: Procaspase-3 catabolic enzyme inhibition experiment using a flow cytometer. To be noted: inhibitor preincubated, then DMPC liposome solution, FIG. 4.
[4] abbreviates: control without caspase-9 inhibitor, only DMPC liposome solution, three hours.

On to “Ac—L-Tyr-L-Val-L-Ala-L-Asp-H [caspase-1,4 inhibitor]”, for which the “DNA fragmentation percentage with caspase-1,4 inhibitor added in stages” value in assay [1] is “decreased approximately depending upon the concentration”.
Regarding `CCCCCCCCCCCCCC(=O)OC[C@H](COP(=O)([O-])OCC[N+](C)(C)C)OC(=O)CCCCCCCCCCCCC` [dimyristoyl phosphatidylcholine, 1,2-dimyristoyl-sn-glycero-3-phosphocholine], in assay [2] (setting [4]), the “DNA fragmentation of human promyelocytes of leukemia” value is “clearly observed” and the apoptosis induction entry is listed as “apoptosis was induced”.
For “Ac—L-Ile-L-Glu-L-Thr-L-Asp-H [procaspase-3 catabolic enzyme inhibitor]”, the “DNA fragmentation percentage with procaspase-3 catabolic enzyme inhibitor added in stages” value in assay [3] is listed as “decreased approximately depending upon the concentration”.
Regarding “Ac—L-Leu-L-Glu-L-His-L-Asp-H [caspase-9 inhibitor]”, in assay [2] (0 to 120 μl inhibitor preincubated 90 minutes, then DMPC liposome solution for three hours, FIG. 3), the “DNA fragmentation percentage with caspase-9 inhibitor added in stages” value was “decreased approximately depending upon the concentration”.
